Measured values as given in ChEMBL document CHEMBL4364331, “Identification of CB1 Receptor Allosteric Sites Using Force-Biased MMC Simulated Annealing and Validation by Structure-Activity Relationship Studies” (ACS Med Chem Lett, 2019).

Assays:
Cannabinoid receptor 1 [1] = target: T1, Cannabinoid receptor 1 (Homo sapiens, UniProt P21554); assay: Positive allosteric modulatory activity at human CB1R expressed in CHO-K1 cells assessed as CP55940-induced cAMP level by hit-hunter cAMP assay; assay type: functional, cell-based
T1 sequence (P21554 whole entry): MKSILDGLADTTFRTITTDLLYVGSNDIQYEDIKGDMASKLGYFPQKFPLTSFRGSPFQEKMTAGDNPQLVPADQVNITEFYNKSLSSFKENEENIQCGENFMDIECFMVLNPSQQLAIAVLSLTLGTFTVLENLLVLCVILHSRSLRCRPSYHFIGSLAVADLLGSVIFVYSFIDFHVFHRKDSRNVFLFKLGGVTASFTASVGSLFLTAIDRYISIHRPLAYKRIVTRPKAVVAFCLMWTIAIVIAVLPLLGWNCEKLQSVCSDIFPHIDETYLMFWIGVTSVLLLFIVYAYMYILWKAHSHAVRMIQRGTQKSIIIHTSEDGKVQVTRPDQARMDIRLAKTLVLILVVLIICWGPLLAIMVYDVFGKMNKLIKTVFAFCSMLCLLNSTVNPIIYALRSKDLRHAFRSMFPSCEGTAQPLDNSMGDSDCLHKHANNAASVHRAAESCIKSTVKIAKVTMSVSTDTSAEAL

Cannabinoid receptor 1 [2] = target: T1, Cannabinoid receptor 1; assay: Positive allosteric modulatory activity at human CB1R expressed in CHO-K1 cells assessed as CP55940-induced cAMP level by hit-hunter cAMP assay relative to control; assay type: functional, cell-based
Cannabinoid receptor 1 [3] = target: Cannabinoid receptor 1 (Mus musculus, UniProt P47746); assay: Positive allosteric modulatory activity at mouse CB1R expressed in CHO-K1 cells assessed as CP55940-induced beta-arrestin2 recruitment by pathhunter beta-arrestin assay; assay type: cell-based
Cannabinoid receptor 1 (Mus musculus, UniProt P47746), sequence (P47746 whole entry): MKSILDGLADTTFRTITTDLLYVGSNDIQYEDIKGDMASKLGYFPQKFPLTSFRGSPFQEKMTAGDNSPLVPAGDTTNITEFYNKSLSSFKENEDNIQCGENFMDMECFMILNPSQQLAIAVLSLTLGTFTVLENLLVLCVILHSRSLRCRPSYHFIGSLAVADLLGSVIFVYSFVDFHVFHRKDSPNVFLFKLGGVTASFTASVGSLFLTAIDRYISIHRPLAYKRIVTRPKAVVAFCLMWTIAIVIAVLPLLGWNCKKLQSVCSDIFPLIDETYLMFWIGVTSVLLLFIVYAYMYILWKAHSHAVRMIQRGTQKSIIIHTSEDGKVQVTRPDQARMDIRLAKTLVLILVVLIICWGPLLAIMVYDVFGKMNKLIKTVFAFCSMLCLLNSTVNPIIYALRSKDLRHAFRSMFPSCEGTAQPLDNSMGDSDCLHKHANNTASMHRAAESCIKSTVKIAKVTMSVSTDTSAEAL

[4] = target: Cannabinoid receptor 1 (Mus musculus) (UniProt P47746); assay: Positive allosteric modulatory activity at mouse CB1R expressed in CHO-K1 cells assessed as CP55940-induced beta-arrestin2 recruitment by pathhunter beta-arrestin assay relative to control; assay type: cell-based
Cannabinoid receptor 1 (Mus musculus), sequence (P47746 whole entry): as above

**Q.** For O=[N+]([O-])CC(c1ccccc1)c1c(C2CCCCC2)[nH]c2ccccc12 (stereo unspecified), which EC50 (Cannabinoid receptor 1 [1]) is on record?
**A.** Its EC50 is 0.992 µM.

**Q.** And the Emax (Cannabinoid receptor 1 [2])?
**A.** The Emax was 121%.

**Q.** What about the EC50 (Cannabinoid receptor 1 [3]) of the same compound?
**A.** The EC50 was greater than 10 µM.

**Q.** And the Emax [4]?
**A.** Its Emax is 0%.

**Q.** With O=[N+]([O-])CC(c1ccccc1)c1c[nH]c2ccccc12 (stereo unspecified) as the compound, how does the EC50 (Cannabinoid receptor 1 [1]) read?
**A.** Its EC50 is greater than 10 µM.

**Q.** And the Emax (Cannabinoid receptor 1 [2])?
**A.** The Emax was 0%.

**Q.** What about the EC50 (Cannabinoid receptor 1 [3]) of the same compound?
**A.** Its EC50 is greater than 10 µM.

**Q.** And the Emax [4]?
**A.** Its Emax is 0%.

**Q.** O=[N+]([O-])CC(c1ccccc1)c1cc[nH]c1-c1ccccc1 (stereo unspecified) was tested. Which EC50 (Cannabinoid receptor 1 [1]) did it give?
**A.** The EC50 was greater than 10 µM.

**Q.** And the Emax (Cannabinoid receptor 1 [2])?
**A.** The Emax was 0%.

**Q.** And the EC50 (Cannabinoid receptor 1 [3])?
**A.** Its EC50 is greater than 10 µM.

**Q.** And the Emax [4]?
**A.** The Emax was 0%.

**Q.** Which EC50 (Cannabinoid receptor 1 [1]) does the source give for NCC(c1ccccc1)c1c(-c2ccccc2)[nH]c2ccccc12 (stereo unspecified) here?
**A.** Its EC50 is greater than 10 µM.

**Q.** What about the Emax (Cannabinoid receptor 1 [2]) of the same compound?
**A.** Its Emax is 12%.

**Q.** What about the EC50 (Cannabinoid receptor 1 [3]) of the same compound?
**A.** Its EC50 is greater than 10 µM.

**Q.** What about the Emax [4] of the same compound?
**A.** Its Emax is 12%.

**Q.** Which results are given for O=[N+]([O-])CC(c1ccccc1)c1c(-c2ccccc2)[nH]c2ccccc12 (stereo unspecified)?
**A.** Emax (Cannabinoid receptor 1 [2]): 110%; EC50 (Cannabinoid receptor 1 [3]): 0.94 µM; Emax [4]: 46%

**Q.** For Cn1c(-c2ccccc2)c(C(C[N+](=O)[O-])c2ccccc2)c2ccccc21 (stereo unspecified), which EC50 (Cannabinoid receptor 1 [1]) is on record?
**A.** Its EC50 is greater than 10 µM.

**Q.** And the Emax (Cannabinoid receptor 1 [2])?
**A.** Its Emax is 0%.

**Q.** And the EC50 (Cannabinoid receptor 1 [3])?
**A.** Its EC50 is greater than 10 µM.

**Q.** What about the Emax [4] of the same compound?
**A.** Its Emax is 0%.

**Q.** For O=[N+]([O-])CC(c1ccccc1)c1cn(-c2ccccc2)c2ccccc12 (stereo unspecified), which EC50 (Cannabinoid receptor 1 [1]) is on record?
**A.** The EC50 was greater than 10 µM.

**Q.** What about the Emax (Cannabinoid receptor 1 [2]) of the same compound?
**A.** The Emax was 0%.

**Q.** And the EC50 (Cannabinoid receptor 1 [3])?
**A.** Its EC50 is greater than 10 µM.

**Q.** What about the Emax [4] of the same compound?
**A.** The Emax was 0%.

**Q.** What does the source list for O=[N+]([O-])CCc1c(-c2ccccc2)[nH]c2ccccc12?
**A.** EC50 (Cannabinoid receptor 1 [1]): 5.53 µM; Emax (Cannabinoid receptor 1 [2]): 85%; EC50 (Cannabinoid receptor 1 [3]): > 10 µM; Emax [4]: 0%
